Assay results published in US11813306B2, “Cyclic tetramer compounds as proprotein convertase subtilisin/kexin type 9 (PCSK9) inhibitors for the treatment of metabolic disorders” (NOVARTIS AG, priority 2018, dated 2023).

Biological target: human PCSK9 (Homo sapiens, UniProt Q8NBP7)
Test: PCSK9 ligand binding assay (TR-FRET): interference with binding of human PCSK9 to human LDLR
Details: for IC50: Human PCSK9 Alexa Fluor 647 / Human LDLR extracellular domain-Europium Kryptate; for Max % inhibition: efficacy (Amax), 100% = 1 uM unlabeled human PCSK9, 0% = DMSO
In short: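 Read-out was TR-FRET ratio (665 nm over 615 nm, 330 nm excitation) between Alexa Fluor 647-human PCSK9 (16 nM added) and Europium Kryptate-human LDLR ectodomain (4 nM added). Compound and PCSK9 were mixed 30 min before LDLR, then incubated 2 h. Inhibition was normalised to DMSO and unlabelled-PCSK9 controls, giving IC50 and Amax.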

Chain of human PCSK9 (Q8NBP7 153-692): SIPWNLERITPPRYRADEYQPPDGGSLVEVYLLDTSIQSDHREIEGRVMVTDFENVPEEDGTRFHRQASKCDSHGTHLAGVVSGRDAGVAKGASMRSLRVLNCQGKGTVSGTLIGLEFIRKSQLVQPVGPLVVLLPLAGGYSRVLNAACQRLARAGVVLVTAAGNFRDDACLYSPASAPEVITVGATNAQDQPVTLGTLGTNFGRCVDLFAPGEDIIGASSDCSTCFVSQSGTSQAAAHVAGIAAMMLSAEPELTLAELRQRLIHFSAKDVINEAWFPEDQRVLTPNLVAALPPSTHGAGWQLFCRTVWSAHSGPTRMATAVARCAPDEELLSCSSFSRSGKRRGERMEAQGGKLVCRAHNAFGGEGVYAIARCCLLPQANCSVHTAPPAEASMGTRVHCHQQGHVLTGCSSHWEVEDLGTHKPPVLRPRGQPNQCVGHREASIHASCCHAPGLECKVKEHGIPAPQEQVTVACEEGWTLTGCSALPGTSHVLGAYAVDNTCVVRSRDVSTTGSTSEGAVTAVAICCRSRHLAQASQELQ
Chain of human PCSK9 (Q8NBP7 31-152 partner limits assumed): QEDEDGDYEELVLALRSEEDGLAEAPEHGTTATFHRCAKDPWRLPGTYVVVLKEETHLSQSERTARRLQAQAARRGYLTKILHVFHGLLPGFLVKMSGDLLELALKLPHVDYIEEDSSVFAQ

IC50 [nM]	Max % inhibition [%]	SMILES
0.72	110.6	C[C@H]1C(=O)N[C@@H](CO)C(=O)N[C@@]2(Cc3ccc(Cl)cc3)CCCN(C2)C(=O)[C@H](CC(F)(F)F)CC(=O)N1Cc1ccc(Cl)cc1Oc1ccc(-c2cnc(CNC(C)(C)C)n2C)cc1 [Compound 147, (3S, 7S, 10S, 13R)-6-(2-(4-(2-((tert-butylamino)methyl)-1-methyl-1H-imidazol-5-yl)phenoxy)-4-chlorobenzyl)-13-(4-chlorobenzyl)-10-(hydroxymethyl)-7-methyl-3-(2,2,2-trifluoroethyl)-1,6,9,12-tetraazabicyclo[11.3.1]heptadecane-2,5,8,11-tetraone]
0.91	111.1	COC[C@@H]1NC(=O)[C@H](C)N(Cc2c(F)cc(Cl)cc2Oc2ccc(-c3cnc(CNC(C)(C)C)n3C)cc2)C(=O)C[C@@H](CC2CC2)C(=O)N2CCC[C@@](Cc3ccc(Cl)cc3)(C2)NC1=O [Compound 142, (3R, 7S, 10S, 13R)-6-(2-(4-(2-((tert-butylamino)methyl)-1-methyl-1H-imidazol-5-yl)phenoxy)-4-chloro-6-fluorobenzyl)-13-(4-chlorobenzyl)-3-(cyclopropylmethyl)-10-(methoxymethyl)-7-methyl-1,6,9,12-tetraazabicyclo[11.3.1]heptadecane-2,5,8,11-tetraone]
0.572	103.6	COC[C@@H]1NC(=O)[C@H](C)N(Cc2ccc(Cl)cc2Oc2ccc(-c3cnc(CN4CC[C@H](O)C4)n3C)cc2)C(=O)C[C@@H](Cc2ccccc2)C(=O)N2CCC[C@@](Cc3ccc(Cl)cc3)(C2)NC1=O.Cl [Compound 59, (3R, 7S, 10S, 13R)-3-benzyl-6-(4-chloro-2-(4-(2-(((S)-3-hydroxypyrrolidin-1-yl)methyl)-1-methyl-1H-imidazol-5-yl)phenoxy)benzyl)-13-(4-chlorobenzyl)-10-(methoxymethyl)-7-methyl-1,6,9,12-tetraazabicyclo+11.3.1+heptadecane-2,5,8,11-tetraone]
5.69	107.5	C[C@H]1C(=O)N[C@@H](CO)C(=O)N(C)[C@@]2(Cc3ccc(Cl)cc3)CCCN(C2)C(=O)[C@@H](CC(F)(F)F)CC(=O)N1Cc1c(F)cc(Cl)cc1Oc1ccc(-c2cnc(CN(C)C)n2C)cc1 [Compound 151, (3R, 7S, 10S, 13R)-6-(4-chloro-2-(4-(2-((dimethylamino)methyl)-1-methyl-1H-imidazol-5-yl)phenoxy)-6-fluorobenzyl)-13-(4-chlorobenzyl)-10-(hydroxymethyl)-7,12-dimethyl-3-(2,2,2-trifluoroethyl)-1,6,9,12-tetraazabicyclo[11.3.1]heptadecane-2,5,8,11-tetraone]

The next lines start with the compound.

SMILES	IC50 [nM]	Max % inhibition [%]
COC[C@@H]1NC(=O)[C@H](C)N(Cc2ccc(Cl)cc2Oc2ccc(-c3cnc(CN(C)C)n3C)cc2)C(=O)C[C@@H](CC(F)(F)F)C(=O)N2CCC[C@@](Cc3ccc(Cl)cc3)(C2)N(C)C1=O [Compound 9, (3S, 7S, 10S, 13R)-6-(4-chloro-2-(4-(2-((dimethylamino)methyl)-1-methyl-1H-imidazol-5-yl)phenoxy)benzyl)-13-(4-chlorobenzyl)-10-(methoxymethyl)-7,12-dimethyl-3-(2,2,2-trifluoroethyl)-1,6,9,12-tetraazabicyclo[11.3.1]heptadecane-2,5,8,11-tetraone]	0.22	111.3
C[C@H]1C(=O)N[C@@H](CO)C(=O)N[C@@]2(Cc3ccc(Cl)cc3)CCCN(C2)C(=O)[C@H](Cc2ccccc2)CC(=O)N1Cc1ccc(Cl)cc1Oc1ccc(-c2cnc(CN(C)C)n2C)cc1 [Compound 50, (3R,7S,10S,13R)-3-Benzyl-6-(4-chloro-2-(4-(2-((dimethylamino)methyl)-1-methyl-1H-imidazol-5-yl)phenoxy)benzyl)-13-(4-chlorobenzyl)-10-(hydroxymethyl)-7-methyl-1,6,9,12-tetraazabicyclo[11.3.1]heptadecane-2,5,8,11-tetraone]	0.51	108.7
